One compound from patent US9045401B2, “Methods for treating or ameliorating a melanoma and killing melanoma cells” (THE REGENTS OF THE UNIVERSITY OF CALIFORNIA, priority 2007, dated 2015) can be followed below.

The test system of the experiment is A549 cells. Briefly: confocal microscopy of ceramide and caspase 8. The following applies: 300 nM, 30 minutes after treatment. The format is cell-based, human. The method, then:
Confocal microscopy. […] After treatment, the cells were fixed 10 minutes at room temperature with 4% PFA, washed twice with PBS, permeabilized 2 minutes at room temperature with 0.1% triton in PBS and blocked for 30 minutes with sterile 2% BSA in PBS. The staining was performed at room temperature for 2 hours (h), with mouse monoclonal anti-human ceramide (Alexis) and rabbit anti-human caspase 8 (BD Pharmingen) antibodies followed by secondary goat anti-mouse ALEXA FLUOR568™ and goat anti-rabbit ALEXA FLUOR488™ antibodies (Invitrogen). The blue DNA binding dye TOPRO-3™ (Molecular Probes) was added together with the secondary antibodies. The cells were washed three times with PBS between the different incubation steps and the incubation with the secondary fluorescently labeled antibodies was performed in the dark. All antibodies were diluted in PBS. Confocal images were recorded on a Nikon ECLIPSE C1™ confocal microscope.

In the case of `CCCCC/C=C\C/C=C\C/C=C\C/C=C\CCCC(=O)O` [arachidonic acid, reference compound], the cell surface ceramide result is listed as “absent”.
